This note sets out measurements from patent US20230023009A1, “HETEROCYCLIC COMPOUNDS AND METHODS OF USE THEREOF” (SPARCBIO LLC, priority 2020, published 2023).

The test system of assay [1] is Phosphorylation of ERK in NCI-H358 cells. The experiment in a line: pERK assay (Method II, homogeneous TR-FRET). Type of assay: cell-based. The conditions noted are these: Homo sapiens, 4 hrs compound treatment. The protocol: Method II. Phosphorylation of ERK was assessed by a homogeneous TR-FRET assay (Advanced phospho-ERK (Thr202/Tyr204) cellular kit; Cat. #64AERPEH, Cisbio). In brief, NCI-H358 cells were seeded in a 384-well culture plate at a density of 6000 cells in 40 μL medium/well and grown overnight at 37° C. and 5% CO2. Each test compound was dosed in duplicate in a 10-dose 3-fold titration starting at 10 μM or 2 μM. The culture plate was then incubated for 4 hrs in the incubator. At the end of the compound treatment, the medium was removed, 35 μL of lysis buffer was added to each well, and the plate was agitated on a plate shaker for 40 mins at 4° C. An antibody cocktail of phospho-ERK1/2 Eu Cryptate antibody and Phospho-ERK1/2 d2 antibody was prepared by separately diluting the antibodies 20-fold with detection buffer and then mixing them together. 3.4 μL of antibody cocktail was dispensed to each well of an empty 384-well white ProxiPlus assay plate (Perkin Elmer), and the plate briefly centrifuged. 13.6 μL of cell lysate was then added to the antibody-containing wells, and the plate was briefly centrifuged and then incubated 2 hrs at room temperature. The plate was read on a fluorescence plate reader (Envision2104, Perkin Elmer), with an excitation wavelength of 337 nm and emission wavelengths of 615 nm and 665 nm. The IC50 value of each test compound was calculated with XLFit curve fitting software. Results are shown in Table 6. ‘+++’ indicates IC50 values≤300 nM, ‘++’ indicates IC50 values between 300 nM-3 μM, and ‘+’ indicates IC50 values≥3 μM.

The next assay has as its target KRAS G12C protein (Homo sapiens, UniProt P01116, G12C). The experiment in a line: Nucleotide exchange assay (Method III, KRAS G12C/Raf-RBD TR-FRET). Type of assay: biochemical. The conditions noted are these: SOS1-mediated exchange of GDP for GTP, 18 hr compound incubation. In a few lines: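 His-tagged GDP-bound KRAS G12C (25 nM in 2× mix) was preincubated with an 11-point, 3-fold compound series for 18 hr at 23° C, then SOS1/GTP was added for 1 hr. FLAG-Raf-RBD with Tb-anti-FLAG/D2-anti-His followed for 2 hr at room temperature. TR-FRET was read, and IC50 was obtained by non-linear regression.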

In another assay the test system is A549. The experiment in a line: Cell proliferation assay panel (Cell Titer-Glo, 72 hr). The conditions noted are these: Homo sapiens. Type of assay: cell-based. The procedure:
(§1) Potency of compounds was determined in cell proliferation assays in a panel of cancer cell lines. Cells were seeded in 384-well plates (Corning, Cat. #3765) at specified densities in 40 μL of culture medium and incubated overnight at 37° C. in a 5% CO2 incubator (culture conditions). With a robotic dispenser, serially diluted test compounds were added in a volume of 20 nL DMSO to wells in the culture plate to achieve the final desired concentrations of test compounds, and the cells were further incubated in culture conditions for 72 hr. The assay was terminated by addition of 25 μL of Cell Titer-Glo reagent (Promega, Madison, Wis.) to each well. Contents were mixed, the plate was incubated for 10 min at room temperature and luminescence was measured. The IC50 value of each test compound was calculated with XLFit curve fitting software. Results are shown in Table 4. ‘+++’ indicates IC50 values≤300 nM, ‘++’ indicates IC50 values between 300 nM-3 μM, and ‘+’ indicates IC50 values≥3 μM.

Another assay has as its system KYSE-410. Described as above. Type of assay: cell-based. The conditions noted are these: Homo sapiens. The procedure:
as §1

Another assay has as its system NCI-H1373. The assay is described as above. Type of assay: cell-based. The conditions noted are these: Homo sapiens. The procedure:
as §1

A further assay deals with NCI-H2122. The description is as above. Type of assay: cell-based. The conditions noted are these: Homo sapiens. The protocol:
as §1

A further assay concerns NCI-H2030. The assay is described as above. Type of assay: cell-based. The conditions noted are these: Homo sapiens. The procedure: as §1
The subject of another assay is MIA PaCa-2. The assay is described as above. Type of assay: cell-based. The conditions noted are these: Homo sapiens, MIA PaCa-2, 72 h. The procedure:
as §1

For a further assay, the system named is NCI-H358. Described as above. Type of assay: cell-based. The conditions noted are these: Homo sapiens. The procedure:
as §1

In the next assay the test system is SW1573. Described as above. Type of assay: cell-based. The conditions noted are these: Homo sapiens. The protocol:
as §1

A further assay concerns the target T1, hERG potassium channel (Homo sapiens, UniProt Q12809).
T1 construct: host or cells: CHO
Kind of assay: hERG inhibition assay (manual whole-cell patch-clamp, CHO cells). Type of assay: cell-based. The protocol: Compounds were tested for the potential to inhibit the hERG potassium channel. It is known that inhibition of the hERG channel may cause QT prolongation and increase the risk of cardiac arrhythmias. Therefore, to avoid cardiotoxicity, a compound with relatively low or no inhibition of the channel is desirable. Manual whole-cell patch-clamp recordings were made in Chinese hamster ovary (CHO) cells stably expressing hERG channels (B'Sys, Switzerland). Standard intracellular and bath solutions for hERG current detection were used. Cells were exposed to test compounds at 6 concentrations prepared by 1:3 serial dilution of compounds from a top starting concentration of 30 μM. Currents were elicited by stepping the voltage from a holding potential of −80 mV to −50 mV (20 ms) and then stepping to +40 mV (4 s). A subsequent step to −50 mV (4 s) was used to elicit a tail current which was used for data analysis. Current recordings were made in triplicate using three different cells. Data normalized to the activity in vehicle (0.1 or 0.3% DMSO) were fit with 4-parameter non-linear regression, and IC50 values were determined from the dose-response curves, using GraphPad Prism software.

T1 sequence (Q12809 whole entry): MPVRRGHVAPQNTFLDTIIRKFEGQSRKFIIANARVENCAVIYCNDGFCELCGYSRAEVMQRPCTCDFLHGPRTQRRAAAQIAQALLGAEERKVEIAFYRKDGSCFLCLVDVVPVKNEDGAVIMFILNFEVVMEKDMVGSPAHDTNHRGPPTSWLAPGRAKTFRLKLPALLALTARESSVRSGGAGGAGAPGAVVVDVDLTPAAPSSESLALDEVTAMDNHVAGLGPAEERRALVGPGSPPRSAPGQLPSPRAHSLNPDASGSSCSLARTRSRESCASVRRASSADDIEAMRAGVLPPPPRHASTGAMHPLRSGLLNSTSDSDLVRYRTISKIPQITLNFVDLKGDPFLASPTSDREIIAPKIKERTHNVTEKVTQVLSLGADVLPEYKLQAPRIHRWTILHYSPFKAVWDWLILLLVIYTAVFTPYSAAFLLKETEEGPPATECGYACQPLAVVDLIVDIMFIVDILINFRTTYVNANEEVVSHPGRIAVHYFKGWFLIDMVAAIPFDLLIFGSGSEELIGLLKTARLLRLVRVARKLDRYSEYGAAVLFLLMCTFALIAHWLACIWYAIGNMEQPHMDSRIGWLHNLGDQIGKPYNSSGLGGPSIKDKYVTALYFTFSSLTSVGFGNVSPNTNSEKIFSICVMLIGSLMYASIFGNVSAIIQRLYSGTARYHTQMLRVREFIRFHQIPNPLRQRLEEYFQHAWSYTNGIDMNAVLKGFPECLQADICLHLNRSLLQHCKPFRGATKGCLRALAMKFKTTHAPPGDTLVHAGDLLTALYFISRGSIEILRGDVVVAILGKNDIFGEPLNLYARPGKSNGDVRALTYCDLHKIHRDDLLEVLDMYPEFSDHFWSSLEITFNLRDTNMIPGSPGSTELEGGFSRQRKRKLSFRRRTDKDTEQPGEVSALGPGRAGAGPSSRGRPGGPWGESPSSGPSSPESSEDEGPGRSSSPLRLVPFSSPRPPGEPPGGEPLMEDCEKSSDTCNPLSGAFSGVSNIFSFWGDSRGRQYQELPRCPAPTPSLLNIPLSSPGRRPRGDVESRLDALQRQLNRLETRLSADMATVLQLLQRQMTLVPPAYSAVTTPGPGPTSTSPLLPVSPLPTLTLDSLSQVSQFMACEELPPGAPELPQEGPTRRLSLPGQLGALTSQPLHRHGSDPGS
KRAS G12C protein, sequence (P01116 1-188 isoform P01116-2 G12C): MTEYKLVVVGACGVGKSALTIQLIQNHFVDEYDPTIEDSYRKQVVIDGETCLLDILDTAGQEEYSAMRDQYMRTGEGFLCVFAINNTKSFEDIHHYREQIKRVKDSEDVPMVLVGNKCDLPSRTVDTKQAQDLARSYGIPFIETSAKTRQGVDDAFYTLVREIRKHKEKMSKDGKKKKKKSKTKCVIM

Turning to `C=C(F)C(=O)N1CCN(c2nc(OC[C@@H]3CCCN3C)nc3c2CO[C@@H](c2cccc4cccc(Cl)c24)C3)C[C@@H]1CC#N` (single isomer, unassigned) [43 (Isomer B)], the 50% inhibitory concentration (IC50) was not above 300 nM in [1]; not above 300 nM against KRAS G12C protein; not below 3000 nM in the assay on A549; not below 3000 nM with KYSE-410; 300 to 3000 nM with NCI-H1373; 300 to 3000 nM in the assay with NCI-H2122. In addition, the IC50 with NCI-H2030 is 300 to 3000 nM; in the assay on MIA PaCa-2 it was not above 300 nM; with NCI-H358 it was not above 300 nM; in the assay on SW1573, not below 3000 nM; against hERG potassium channel, 3610 nM.
